{
  "source": "patent US12091409B2",
  "about": "“Ether linked triazoles as NRF2 activators” (ASTEX THERAPEUTICS LIMITED, priority 2016, dated 2024)",
  "note": "Where a name gives a salt, the structure may show the parent alone.",
  "data": [
    {"tested_on": "NQO1 specific enzyme activity in BEAS-2B cells (marker for NRF2 activation)", "assay": "BEAS-2B NQO1 MTT Assay", "type": "cell-based", "details": "Homo sapiens, BEAS-2B, 48 h, NQO1 specific activity induction, 48 hours with compound", "summary_of_the_method": "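Following 48 h compound treatment at 37° C., 5% CO2, cells were lysed and MTT cocktail added. Product formation was followed kinetically at 570 nm for 30 min. Rate (Delta OD/min) against log concentration was fitted with 3 parameters to give pEC50 for induction of NQO1 specific activity.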", "units": {"EC50": "nM"}, "values": [
      {"smiles": "CCn1cc(COC(c2ccc(C)c(CN(C3CCCCC3)S(=O)(=O)c3cccc(OC)c3)c2)C(C)(C)C(=O)O)nn1", "note": "(stereo not drawn) [Example 96, 3-(3-(((N-cyclohexyl-3-methoxyphenyl)sulfamido)methyl)-4-methylphenyl)-3-((1-ethyl-1H-1,2,3-triazol-4-yl)methoxy)-2,2-dimethylpropanoic acid]", "EC50": "100 to 1000"},
      {"smiles": "CCn1cc(COC(c2ccc(C)c(CN(C3CCCCC3)S(=O)(=O)c3ccc(OC)cc3)c2)C(C)(C)C(=O)O)nn1", "note": "(stereo not drawn) [Example 97, 3-(3-(((N-cyclohexyl-4-methoxyphenyl)sulfonamido)methyl)-4-methylphenyl)-3-((1-ethyl-1H-1,2,3-triazol-4-yl)methoxy)-2,2-dimethylpropanoic acid]", "EC50": "100 to 1000"},
      {"smiles": "CCn1cc(COC(c2ccc(C)c(CN(C3CCCCC3)S(=O)(=O)c3ccccc3)c2)C(C)(C)C(=O)O)nn1", "note": "(stereo not drawn) [Example 98, 3-(3-((N-cyclohexylphenylsulfonamido)methyl)-4-methylphenyl)-3-((1-ethyl-1H-1,2,3-triazol-4-yl)methoxy)-2,2-dimethylpropanoic acid]", "EC50": "10 to 100"},
      {"smiles": "CCn1cc(COC(c2ccc(C)c(CN(Cc3ccccc3)S(=O)(=O)c3ccccc3)c2)C(C)(C)C(=O)O)nn1", "note": "(stereo not drawn) [Example 99, 3-(3-((N-benzylphenylsulfonamido)methyl)-4-methylphenyl)-3-((1-ethyl-1H-1,2,3-triazol-4-yl)methoxy)-2,2-dimethylpropanoic acid]", "EC50": "10 to 100"},
      {"smiles": "Cc1ccc(C(OCc2cn(CC3CCN(C(N)=O)CC3)nn2)C(C)(C)C(=O)O)cc1CN1C[C@@H](C)Oc2ccccc2S1(=O)=O", "note": "(stereo partly drawn) [Example 100, 3-((1-((1-Carbamoylpiperidin-4-yl)methyl)-1H-1,2,3-triazol-4-yl)methoxy)-2,2-dimethyl-3-(4-methyl-3-(((R)-4-methyl-1,1-dioxido-3,4-dihydro-2H-benzo[b][1,4,5]oxathiazepin-2-yl)methyl)phenyl)propanoic acid]", "EC50": "100 to 1000"},
      {"smiles": "Cc1ccc(C(OCc2c[nH]nn2)C(C)(C)C(=O)O)cc1CN1C[C@@H](C)Oc2ccccc2S1(=O)=O", "note": "(stereo partly drawn) [Example 101, 3-((1H-1,2,3-triazol-4-yl)methoxy)-2,2-dimethyl-3-(4-methyl-3-(((R)-4-methyl-1,1-dioxido-3,4-dihydro-2H-benzo[b][1,4,5]oxathiazepin-2-yl)methyl)phenyl)propanoic acid]", "EC50": "10 to 100"},
      {"smiles": "Cc1ccc(C(OCc2cn(C3COC3)nn2)C(C)(C)C(=O)O)cc1CN1C[C@@H](C)Oc2ccccc2S1(=O)=O", "note": "(stereo partly drawn) [Example 104, 2,2-Dimethyl-3-(4-methyl-3-(((R)-4-methyl-1,1-dioxido-3,4-dihydro-2H-benzo[b][1,4,5]oxathiazepin-2-yl)methyl)phenyl)-3-((1-(oxetan-3-yl)-1H-1,2,3-triazol-4-yl)methoxy)propanoic acid]", "EC50": "10 to 100"},
      {"smiles": "CC[C@@H]1CN(Cc2cc([C@H](OCc3cn(C4COC4)nn3)C(C)(C)C(=O)O)ccc2C)S(=O)(=O)c2ccccc2O1", "note": "[Example 105]", "EC50": "1 to 10"},
      {"smiles": "CC[C@@H]1CN(Cc2cc(C(OCc3cn(CCOC)nn3)C(C)(C)C(=O)O)ccc2C)S(=O)(=O)c2ccccc2O1", "note": "(stereo partly drawn) [Example 106, 3-(3-(((R)-4-ethyl-1,1-dioxido-3,4-dihydro-2H-benzo[b][1,4,5]oxathiazepin-2-yl)methyl)-4-methylphenyl)-3-((1-(2-methoxyethyl)-1H-1,2,3-triazol-4-yl)methoxy)-2,2-dimethylpropanoic acid]", "EC50": "< 1"},
      {"smiles": "CC[C@@H]1CN(Cc2cc([C@H](OCc3cn(CCOCCOC)nn3)C(C)(C)C(=O)O)ccc2C)S(=O)(=O)c2ccccc2O1", "note": "[Example 107, 3-(3-(((R)-4-ethyl-1,1-dioxido-3,4-dihydro-2H-benzo[b][1,4,5]oxathiazepin-2-yl)methyl)-4-methylphenyl)-3-((1-(2-(2-methoxyethoxy)ethyl)-1H-1,2,3-triazol-4-yl)methoxy)-2,2-dimethylpropanoic acid]", "EC50": "< 1"},
      {"smiles": "CC[C@@H]1CN(Cc2cc([C@@H](OCc3cn(C)nn3)C(C)(C)C(=O)O)ccc2C)Cc2ncccc2O1", "note": "[Example 108, (R)-3-(3-(((R)-2-Ethyl-2,3-dihydropyrido[2,3-f][1,4]oxazepin-4(5H)-yl)methyl)-4-methylphenyl)-2,2-dimethyl-3-((1-methyl-1H-1,2,3-triazol-4-yl)methoxy)propanoic acid Hydrochloride]", "EC50": "10 to 100"},
      {"smiles": "Cc1ccc([C@@H](OCc2cn(C)nn2)C(C)(C)C(=O)O)cc1CN1Cc2ncccc2O[C@H](C(C)C)C1", "note": "[Example 109, (R)-3-(3-(((R)-2-isopropyl-2,3-dihydropyrido[2,3-b][1,4]-oxazepin-4(5H)-yl)methyl)-4-methylphenyl)-2,2-dimethyl-3-((1-methyl-1H-1,2,3-triazol-4-yl)methoxy)propanoic acid]", "EC50": "10 to 100"},
      {"smiles": "CC[C@@H]1CN(Cc2cc([C@@H](OCc3cn(C)nn3)C(C)(C)C(=O)O)ccc2C)Cc2nc(C)ccc2O1", "note": "[Example 110, (R)-3-(3-(((R)-2-Ethyl-7-methyl-2,3-dihydropyrido[2,3-f][1,4]oxazepin-4(5H)-yl)methyl)-4-methylphenyl)-2,2-dimethyl-3-((1-methyl-1H-1,2,3-triazol-4-yl)methoxy)propanoic acid trifluoroacetate]", "EC50": "1 to 10"},
      {"smiles": "CC[C@@H]1CN(Cc2cc([C@H](OCc3cn(C)nn3)C(C)(C)C(=O)O)ccc2C)Cc2ncccc2O1", "note": "[Example 111, (S)-methyl-3-(3-(((R)-2-ethyl-2,3-dihydropyrido[2,3-f][1,4]oxazepin-4(5H)-yl)methyl)-4-methyl-phenyl)-2,2-dimethyl-3-((1-methyl-1H-1,2,3-triazol-4-yl)-methoxy)-propanoic acid]", "EC50": "100 to 1000"},
      {"smiles": "Cc1ccc([C@H](OCc2cn(C)nn2)C(C)(C)C(=O)O)cc1CN1Cc2ncccc2O[C@H](C(C)C)C1", "note": "[Example 112, (S)-3-(3-(((R)-2-isopropyl-2,3-dihydropyrido[2,3-f][1,4]oxazepin-4(5H)-yl)methyl)-4-methylphenyl)-2,2-dimethyl-3-((1-methyl-1H-1,2,3-triazol-4-yl)-methoxy)propanoic acid, trifluoroacetate]", "EC50": "10 to 100"},
      {"smiles": "CC[C@@H]1CN(Cc2cc([C@@H](OCc3cn(CC)nn3)C(C)(C)C(=O)O)ccc2C)Cc2ncccc2O1", "note": "[Example 113, (R)-3-((1-Ethyl-1H-1,2,3-triazol-4-yl)methoxy)-3-(3-(((R)-2-ethyl-2,3-dihydropyrido[2,3-f][1,4]oxazepin-4(5H)-yl)methyl)-4-methylphenyl)-2,2-dimethylpropanoic Acid, Trifluoroacetate]", "EC50": "10 to 100"},
      {"smiles": "CC[C@@H]1CN(Cc2cc([C@H](OCc3cn(CC)nn3)C(C)(C)C(=O)O)ccc2C)Cc2ncccc2O1", "note": "[Example 114, (S)-methyl 3-((1-ethyl-1H-1,2,3-triazol-4-yl)-methoxxy)-3-(3-(((R)-2-ethyl-2,3-dihydropyrido[2,3-f][1,4]oxazepin-4(5H)-yl)methyl)-4-methylphenyl)-2,2-dimethyl-propanoic acid, trifluoroacetate]", "EC50": "100 to 1000"},
      {"smiles": "CC[C@H]1Cc2cccnc2CN(Cc2cc([C@@H](OCc3cn(CC)nn3)C(C)(C)C(=O)O)ccc2C)C1", "note": "[Example 115, (R)-methyl 3-((1-ethyl-1H-1,2,3-triazol-4-yl)-methoxy)-3-(3-((S)-6-ethyl-6,7-dihydro-5H-pyrido[2,3-c]azepin-8(9H)-yl)methyl)-4-methylphenyl)-2,2-dimethyl-propanoic acid, trifluoroacetate]", "EC50": "1 to 10"}
    ]}
  ]
}
